Assay results taken from US11208405B2, “Pyrrole derivatives as PLK1 inhibitors” (SENTINEL ONCOLOGY LIMITED, priority 2017, dated 2021).
Counter-ions that a name gives are not always drawn.

tested on: HCT116 cells; assay: Effects on HCT116 colorectal cancer cell viability (cell titre blue, 72 hours); format: cell-based; details: Homo sapiens, HCT-116, HCT116 cell line
Experimental: Assay to Measure the Effects of Compounds of the Invention on HCT116 Colorectal Cancer Cell Viability
The following protocol was used to measure the effects of compounds of the invention on HCT116 cell viability.
1. HCT116 cells were grown in RPM11640 media supplemented with Glutamax and 10% FBS in a 37° C./5% CO2 incubator.
2. Growing culture of HCT116 cells were trypsinised, counted and diluted to give 10,000 cells/mL in an appropriate volume, allowing at least 6 mL of cells per plate.
3. 200 μL of PBS were added to all the outer wells of a flat-bottomed (8×12) 96-well TC plate. 100 μL of media were added only to wells in column 11 of the plates (these wells provided a blank for the cell titre blue assay). Two compounds were assayed on each plate.
4. 100 ul of 10,000 cells/mL HCT116s were plated in rows B-G of each plate.
5. The cells were incubated (37° C. 5% CO2) for 24 hours before treating with compounds.
6. An 8 mM compound stock in DMSO was prepared for all compounds to be tested. 2.5 μL of the compound stock was added to 1000 μL growth medium in a 96-well deep well block and serial dilutions were prepared across the plate by transferring 500 μL into wells containing 500 μL growth medium+0.25% DMSO to give eight concentrations of compound (this ensured a constant amount of DMSO at all concentrations of compound). When making up growth medium+DMSO, an amount of 5 ml was allowed per compound to be diluted.
7. 3 rows of cells were treated with 100 μL/well from each row on the dilution plate so that each cell plate is treated with a single compound. This gave a final volume in all wells of 200 μL and a titration of compound from a final concentration of 10 uM down to 78 nM.
8. The cells were incubated (37° C. 5% CO2) for 72 hours.
9. 5 ul cell titre blue reagent (Promega) were added to all wells except the edge wells (which contain PBS only) and incubated (37° C. 5% CO2) for 2.5-3 hours.
10. Fluorescence was measured on a suitable plate reader using a 530-570 nm filter set for excitation and a 580-620 nm filter set for fluorescence emission.
11. Data were analysed using an appropriate graphing package (such as GraphPad Prism). Data were expressed as the concentration of compound causing a 50% inhibition of cell viability or GI50.

SMILES	GI50 [nM]
CN(C)CCNC(=O)c1cccc(-c2ccc(-c3ccc(F)cc3)n2-c2ccccc2C(F)(F)F)c1 [Example 5, hydrochloride]	560
CN(C)CCNC(=O)c1cccc(-c2ccc(-c3ccc(Oc4ccccc4)cc3)n2-c2ccc(F)cc2)c1 [Example 8, hydrochloride]	1850
CN(C)CCCNc1cccc(-c2ccc(-c3ccc(Br)cc3)n2-c2ccccc2C(F)(F)F)c1 [Example 16, N-[3-[5-(4-Bromophenyl)-1-[2-(trifluoromethyl)phenyl]pyrrol-2-yl]phenyl]-N′,N′-dimethyl-propane-1,3-diamine Hydrochloride]	2720
CN(C)CCNC(=O)c1ccc(Cl)c(-c2ccc(-c3ccc(Br)cc3)n2-c2ccccc2)c1 [Example 19, hydrochloride]	4210
COc1ccc(C(=O)NCCN(C)C)cc1-c1ccc(-c2ccc(Br)cc2)n1-c1ccccc1 [Example 20, hydrochloride]	3940
CN(C)CC(=O)NCc1cccc(-c2ccc(-c3ccc(Br)cc3)n2-c2ccccc2C(F)(F)F)c1 [Example 21, N-[[3-[5-(4-Bromophenyl)-1-[2-(trifluoromethyl)phenyl]pyrrol-2-yl]phenyl]methyl]-2-(dimethylamino)acetamide Hydrochloride]	1060
O=C(O)c1ccc(-c2ccc(-c3ccc(Br)cc3)n2-c2ccccc2C(F)(F)F)cc1 [Example 27, 4-[5-(4-bromophenyl)-1-[2-(trifluoromethyl)phenyl]pyrrol-2-yl]benzoic acid]	4740
O=C(O)c1ccc(-c2ccc(-c3ccc(Br)cc3)n2-c2ccccc2C(F)(F)F)nc1 [Example 30, 6-[5-(4-bromophenyl)-1-[2-(trifluoromethyl)phenyl]pyrrol-2-yl]pyridine-3-carboxylic acid]	8440
COc1cc(-c2ccc(-c3ccc(Br)cc3)n2-c2ccccc2C(F)(F)F)ccc1C(=O)NCCCN(C)C [Example 31, hydrochloride]	1450
CN(C)CCNC(=O)c1ccc(-c2ccc(-c3ccccc3)n2-c2ccccc2C(F)(F)F)cc1Cl [Example 39, hydrochloride]	350
CN(C)CCNC(=O)c1ccc(-c2ccc(-c3ccc(Br)cc3)n2-c2ccccc2CN(C)C)cc1 [Example 40, hydrochloride]	1030
CN(C)CCNS(=O)(=O)c1ccc(-c2ccc(-c3ccc(Br)cc3)n2-c2ccccc2C(F)(F)F)cc1 [Example 44, 4-[5-(4-Bromophenyl)-1-[2-(trifluoromethyl)phenyl]pyrrol-2-yl]-N-[2-(dimethylamino)ethyl]benzenesulfonamide Hydrochloride]	510
CN(C)CCOCc1ccc(-c2ccc(-c3ccc(Br)cc3)n2-c2ccccc2C(F)(F)F)cc1 [Example 45, 2-[[4-[5-(4-Bromophenyl)-1-[2-(trifluoromethyl)phenyl]pyrrol-2-yl]phenyl]methoxy]-N,N-dimethyl-ethanamine Hydrochloride]	350
O=C(O)Cc1ccc(-c2ccc(-c3ccc(Br)cc3)n2-c2ccccc2C(F)(F)F)cc1 [Example 47, 2-[4-[5-(4-Bromophenyl)-1-[2-(trifluoromethyl)phenyl]pyrrol-2-yl]phenyl]acetic Acid]	1380
CN1CCN(Cc2ccc(-c3ccc(-c4ccc(Br)cc4)n3-c3ccccc3C(F)(F)F)cc2)CC1 [Example 48, hydrochloride]	410
COCc1ccccc1-n1c(-c2ccc(Br)cc2)ccc1-c1ccc(C(=O)NCCN(C)C)cc1 [Example 50]	2180
COc1ccc(C(=O)NCCN(C)C)cc1-c1ccc(-c2ccc(Br)cc2)n1-c1ccccc1C(F)(F)F [Example 52, hydrochloride]	350
CN(C)[C@@H]1CCN(C(=O)c2cccc(-c3ccc(-c4ccc(Br)cc4)n3-c3ccccc3C(F)(F)F)c2)C1 [Example 54, hydrochloride]	1380
CN(C)[C@H]1CCN(C(=O)c2cccc(-c3ccc(-c4ccc(Br)cc4)n3-c3ccccc3C(F)(F)F)c2)C1 [Example 55, hydrochloride]	2250
CC(C)Cc1ccc(C(F)(F)F)c(-n2c(-c3ccc(Cl)cc3)ccc2-c2ccc(C(=O)NCCN(C)C)cc2)c1 [Example 63, hydrochloride]	1640
CC(C)Cc1ccc(C(F)(F)F)c(-n2c(-c3ccc(Cl)cc3)ccc2-c2ccc(C(=O)NCCCN(C)C)cc2)c1 [Example 64, hydrochloride]	1700
NS(=O)(=O)c1ccc(-c2ccc(-c3ccc(Br)cc3)n2-c2ccccc2C(F)(F)F)cc1 [Example 65, 4-[5-(4-bromophenyl)-1-[2-(trifluoromethyl)phenyl]pyrrol-2-yl]benzenesulfonamide]	1960
CN(C)CCNC(=O)c1ccc(-c2ccc(-c3ccc(C#N)nc3)n2-c2ccccc2C(F)(F)F)cc1 [Example 66, hydrochloride]	890
CN(C)CCNC(=O)c1ccc(-c2ccc(-c3cccc(Cl)c3)n2-c2ccccc2C(F)(F)F)cc1 [Example 72, hydrochloride]	1730
CN(C)CCNC(=O)c1ccc(-c2ccc(-c3ccc(Cl)cc3)n2-c2cccc(C(F)(F)F)c2)cc1 [Example 77, hydrochloride]	3630
CN(C)CCCNC(=O)c1ccc(-c2ccc(-c3ccc(Cl)cc3)n2-c2cccc(C(F)(F)F)c2)cc1 [Example 78, hydrochloride]	2130
CN(C)CCNC(=O)c1ccc(-c2ccc(-c3ccc(Cl)cc3)n2-c2ncccc2C(F)(F)F)cc1 [Example 79, hydrochloride]	3830
CN(C)CCCNC(=O)c1ccc(-c2ccc(-c3ccc(Cl)cc3)n2-c2ncccc2C(F)(F)F)cc1 [Example 80, hydrochloride]	3920
CN1CCN(C(=O)c2ccc(-c3ccc(-c4ccc(Cl)cc4)n3-c3ccccc3C(F)(F)F)cc2)CC1 [Example 85, hydrochloride]	490

Compounds with a lower GI50, results first:

GI50 [nM]	SMILES
240	CN(C)CCCNC(=O)c1ccc(-c2ccc(-c3ccc(Cl)cn3)n2-c2ccccc2C(F)(F)F)cc1 [Example 76, hydrochloride]
200	CN(C)CCNC(=O)c1ccc(-c2ccc(-c3ccc(F)cc3F)n2-c2ccccc2C(F)(F)F)cc1 [Example 43]
190	CN(C)CCNC(=O)c1ccc(-c2ccc(-c3ccc(Br)cc3)n2-c2ccccc2C(F)(F)F)cc1Cl [Example 38]
190	O=C(c1ccc(-c2ccc(-c3ccc(Cl)cc3)n2-c2ccccc2C(F)(F)F)cc1)N1CCNCC1 [Example 84, hydrochloride]
160	CN(C)CCC(=O)Nc1ccc(-c2ccc(-c3ccc(Br)cc3)n2-c2ccccc2C(F)(F)F)cc1 [Example 46, N-[4-[5-(4-Bromophenyl)-1-[2-(trifluoromethyl)phenyl]pyrrol-2-yl]phenyl]-3-(dimethylamino) propanamide Hydrochloride]
150	CN(C)CCNC(=O)c1ccc(-c2ccc(-c3ccc(Cl)cn3)n2-c2ccccc2C(F)(F)F)cc1 [Example 75, hydrochloride]
130	COc1cc(C(=O)NCCCN(C)C)ccc1-c1ccc(-c2ccc(Cl)cc2)n1-c1cnccc1C(F)(F)F [Example 74, hydrochloride]
110	CN(C)CCCNC(=O)c1ccc(-c2ccc(-c3ccccc3)n2-c2cnccc2C(F)(F)F)c(Cl)c1 [Example 68, hydrochloride]
100	CN(C)CCCNC(=O)c1ccc(-c2ccc(-c3ccc(Cl)cc3)n2-c2cnccc2C(F)(F)F)cc1 [Example 51, hydrochloride]
90	COc1cc(C(=O)NCCN(C)C)ccc1-c1ccc(-c2ccc(Cl)cc2)n1-c1cnccc1C(F)(F)F [Example 73, hydrochloride]
80	O=C(NCCN1CCOCC1)c1ccc(-c2ccc(-c3ccc(Cl)cc3)n2-c2cnccc2C(F)(F)F)cc1 [Example 81, hydrochloride]
70	CN(C)CCNC(=O)c1ccc(-c2ccc(-c3ccccc3)n2-c2cnccc2C(F)(F)F)c(Cl)c1 [Example 67, hydrochloride]
60	CN(C)CCNC(=O)c1ccc(-c2ccc(-c3ccc(Br)cc3)n2-c2ccccc2C(F)(F)F)nc1 [Example 29, 6-[5-(4-Bromophenyl)-1-[2-(trifluoromethyl)phenyl]pyrrol-2-yl]-N-[2-(dimethylamino)ethyl]pyridine-3-carboxamide Hydrochloride]
60	COc1cc(C(=O)NCCN(C)C)ccc1-c1ccc(-c2ccc(Br)cc2)n1-c1ccccc1C(F)(F)F [Example 32, hydrochloride]
60	CN(C)CCN(C)C(=O)c1ccc(-c2ccc(-c3ccc(Cl)cc3)n2-c2ccccc2C(F)(F)F)cc1 [Example 83, hydrochloride]
50	CN(C)CCNC(=O)c1ccc(-c2ccc(-c3ccc(Cl)cc3)n2-c2cnccc2C(F)(F)F)cc1 [Example 49, hydrochloride]
